According to ChEMBL document CHEMBL5620391 (Eur J Med Chem, 2023):
One block for each compound: values may come before it.

Legend:
[1] = target: Serine/threonine-protein kinase mTOR (Homo sapiens, UniProt P42345); assay: Inhibition of N-terminal FLAG-tagged recombinant human mTOR (1362 to end residues) using ULight-4E-BP1 (Thr37/46) peptide as substrate incubated for 30 mins in presence of ATP by LANCE ultra assay
[2] = target: Phosphatidylinositol 4,5-bisphosphate 3-kinase catalytic subunit gamma isoform (Homo sapiens, UniProt P48736); assay: Inhibition of PI3Kgamma (unknown origin) using PIP2 as substrate incubated for 60 mins in presence of ATP by ADP-Glo assay
[3] = target: T1, Phosphatidylinositol 4,5-bisphosphate 3-kinase catalytic subunit delta isoform (Homo sapiens, UniProt O00329); assay: Inhibition of PI3Kdelta (unknown origin) using PIP2 as substrate incubated for 60 mins in presence of ATP by ADP-Glo assay
T1 sequence (O00329 whole entry): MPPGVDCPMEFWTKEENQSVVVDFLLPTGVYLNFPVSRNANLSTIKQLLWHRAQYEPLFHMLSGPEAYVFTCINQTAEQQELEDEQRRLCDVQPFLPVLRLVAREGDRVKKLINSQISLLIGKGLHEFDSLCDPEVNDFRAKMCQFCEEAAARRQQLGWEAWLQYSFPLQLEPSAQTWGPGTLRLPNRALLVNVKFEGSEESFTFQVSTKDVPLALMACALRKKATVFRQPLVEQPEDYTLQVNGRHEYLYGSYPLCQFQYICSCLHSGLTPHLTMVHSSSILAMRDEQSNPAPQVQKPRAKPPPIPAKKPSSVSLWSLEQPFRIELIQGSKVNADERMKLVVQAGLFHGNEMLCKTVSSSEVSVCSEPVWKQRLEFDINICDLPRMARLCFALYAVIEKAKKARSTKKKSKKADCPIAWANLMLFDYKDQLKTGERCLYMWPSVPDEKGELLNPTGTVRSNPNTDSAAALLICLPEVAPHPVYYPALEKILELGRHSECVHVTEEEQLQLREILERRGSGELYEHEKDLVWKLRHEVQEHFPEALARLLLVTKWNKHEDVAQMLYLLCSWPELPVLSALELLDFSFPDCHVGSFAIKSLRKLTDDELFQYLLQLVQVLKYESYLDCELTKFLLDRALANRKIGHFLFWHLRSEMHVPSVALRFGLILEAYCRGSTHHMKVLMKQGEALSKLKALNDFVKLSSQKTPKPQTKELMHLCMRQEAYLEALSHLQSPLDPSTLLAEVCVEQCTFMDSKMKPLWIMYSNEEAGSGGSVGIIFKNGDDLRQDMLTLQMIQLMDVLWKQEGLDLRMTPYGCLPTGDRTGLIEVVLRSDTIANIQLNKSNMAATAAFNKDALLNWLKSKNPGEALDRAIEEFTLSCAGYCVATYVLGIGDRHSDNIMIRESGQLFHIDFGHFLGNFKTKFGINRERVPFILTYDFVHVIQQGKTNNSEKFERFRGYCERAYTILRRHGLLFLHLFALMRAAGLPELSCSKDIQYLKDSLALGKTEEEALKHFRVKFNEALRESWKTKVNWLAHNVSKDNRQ

[4] = target: Phosphatidylinositol 4,5-bisphosphate 3-kinase catalytic subunit beta isoform (Homo sapiens, UniProt P42338); assay: Inhibition of PI3Kbeta (unknown origin) using PIP2 as substrate incubated for 60 mins in presence of ATP by ADP-Glo assay
[5] = target: Phosphatidylinositol 4,5-bisphosphate 3-kinase catalytic subunit alpha isoform (Homo sapiens, UniProt P42336); assay: Inhibition of PI3Kalpha (unknown origin) using PIP2 as substrate incubated for 60 mins in presence of ATP by ADP-Glo assay
[6] = Clearance in fasted Sprague-Dawley rat at 2 mg/kg, iv measured for 24 hrs by LC-MS/MS analysis; assay type: ADME, organism-based; conditions: in vivo
[7] = Toxicity in nude BALB/c mouse xenografted with human HL-60 cells assessed as toxic sign in lung at 5 to 10 mg/kg, ip administered for 21 days consecutively by H and E staining based analysis; assay type: organism-based; conditions: in vivo, 504 h, dose 5-10 mg/kg, time 21 day
[8] = MRT (infinity) in fasted Sprague-Dawley rat at 2 mg/kg, iv measured for 24 hrs by LC-MS/MS analysis; assay type: ADME, organism-based; conditions: in vivo
[9] = test system: HL-60; assay: Induction of apoptosis in human HL-60 cells assessed as viable cells at 0.25 uM incubated for 48 hrs by Annexin V-FITC/PI staining based flow cytometry (reference value: 97.4 %); assay type: functional; conditions: read-out: Activity
[10] = test system: HL-60; assay: Induction of apoptosis in human HL-60 cells assessed as viable cells at 0.5 uM incubated for 48 hrs by Annexin V-FITC/PI staining based flow cytometry (reference value: 97.4 %); assay type: functional; conditions: read-out: Activity
[11] = Half life in fasted Sprague-Dawley rat at 2 mg/kg, iv measured for 24 hrs by LC-MS/MS analysis; assay type: ADME, organism-based; conditions: in vivo
[12] = Toxicity in nude BALB/c mouse xenografted with human HL-60 cells assessed as body weight change at 5 to 10 mg/kg, ip administered for 21 days consecutively; assay type: organism-based; conditions: in vivo, 504 h, dose 5-10 mg/kg, time 21 day
[13] = Toxicity in nude BALB/c mouse xenografted with human HL-60 cells assessed as toxic sign in heart at 5 to 10 mg/kg, ip administered for 21 days consecutively by H and E staining based analysis; assay type: organism-based; conditions: in vivo, 504 h, dose 5-10 mg/kg, time 21 day
[14] = AUC (0 to infinity) in fasted Sprague-Dawley rat at 10 mg/kg, po measured for 24 hrs by LC-MS/MS analysis; assay type: ADME, organism-based; conditions: in vivo
[15] = AUC (0 to t) in fasted Sprague-Dawley rat at 10 mg/kg, po measured for 24 hrs by LC-MS/MS analysis; assay type: ADME, organism-based; conditions: in vivo
[16] = Apparent volume of distribution in fasted Sprague-Dawley rat at 2 mg/kg, iv measured for 24 hrs by LC-MS/MS analysis; assay type: ADME, organism-based; conditions: in vivo, read-out: Vz
[17] = AUC (0 to infinity) in fasted Sprague-Dawley rat at 2 mg/kg, iv measured for 24 hrs by LC-MS/MS analysis; assay type: ADME, organism-based; conditions: in vivo
[18] = Tmax in fasted Sprague-Dawley rat at 10 mg/kg, po measured for 24 hrs by LC-MS/MS analysis; assay type: ADME, organism-based; conditions: in vivo
[19] = AUC (0 to t) in fasted Sprague-Dawley rat at 2 mg/kg, iv measured for 24 hrs by LC-MS/MS analysis; assay type: ADME, organism-based; conditions: in vivo
[20] = Toxicity in nude BALB/c mouse xenografted with human HL-60 cells assessed as toxic sign in liver at 5 to 10 mg/kg, ip administered for 21 days consecutively by H and E staining based analysis; assay type: organism-based; conditions: in vivo, 504 h, dose 5-10 mg/kg, time 21 day
[21] = test system: HL-60; assay: Induction of apoptosis in human HL-60 cells assessed as viable cells at 1 uM incubated for 48 hrs by Annexin V-FITC/PI staining based flow cytometry (reference value: 97.4 %); assay type: functional; conditions: read-out: Activity
[22] = Toxicity in nude BALB/c mouse xenografted with human HL-60 cells assessed as toxic sign in spleen at 5 to 10 mg/kg, ip administered for 21 days consecutively by H and E staining based analysis; assay type: organism-based; conditions: in vivo, 504 h, dose 5-10 mg/kg, time 21 day
[23] = Toxicity in nude BALB/c mouse xenografted with human HL-60 cells assessed as toxic sign in kidney at 5 to 10 mg/kg, ip administered for 21 days consecutively by H and E staining based analysis; assay type: organism-based; conditions: in vivo, 504 h, dose 5-10 mg/kg, time 21 day
[24] = Half life in fasted Sprague-Dawley rat at 10 mg/kg, po measured for 24 hrs by LC-MS/MS analysis; assay type: ADME, organism-based; conditions: in vivo
[25] = Cmax in fasted Sprague-Dawley rat at 10 mg/kg, po measured for 24 hrs by LC-MS/MS analysis; assay type: ADME, organism-based; conditions: in vivo
[26] = Oral bioavailability in fasted Sprague-Dawley rat at 10 mg/kg measured for 24 hrs by LC-MS/MS analysis; assay type: ADME, organism-based; conditions: in vivo
[27] = test system: EOL1; assay: Antiproliferative activity against human EOL1 cells incubated for 48 hrs by CCK8 assay; assay type: functional, cell-based; conditions: EOL1, 48 h
[28] = Toxicity in nude BALB/c mouse xenografted with human HL-60 cells assessed as toxic sign in kidney at 5 mg/kg, ip administered for 21 days consecutively by H and E staining based analysis; assay type: organism-based; conditions: in vivo, 504 h, time 21 day
[29] = test system: MV4-11; assay: Antiproliferative activity against human MV4-11 cells incubated for 48 hrs by CCK8 assay; assay type: functional, cell-based; conditions: MV4-11, 48 h
[30] = test system: KG-1; assay: Antiproliferative activity against human KG-1 cells incubated for 48 hrs by CCK8 assay; assay type: functional, cell-based; conditions: KG-1, 48 h
[31] = Toxicity in nude BALB/c mouse xenografted with human HL-60 cells assessed as toxic sign in lung at 5 mg/kg, ip administered for 21 days consecutively by H and E staining based analysis; assay type: organism-based; conditions: in vivo, 504 h, time 21 day
[32] = Toxicity in nude BALB/c mouse xenografted with human HL-60 cells assessed as toxic sign in liver at 5 mg/kg, ip administered for 21 days consecutively by H and E staining based analysis; assay type: organism-based; conditions: in vivo, 504 h, time 21 day
[33] = Antiproliferative activity against human MOLM16 cells incubated for 48 hrs by CCK8 assay; conditions: MOLM16, 48 h
[34] = Toxicity in nude BALB/c mouse xenografted with human HL-60 cells assessed as toxic sign in spleen at 5 mg/kg, ip administered for 21 days consecutively by H and E staining based analysis; assay type: organism-based; conditions: in vivo, 504 h, time 21 day
[35] = Toxicity in nude BALB/c mouse xenografted with human HL-60 cells assessed as toxic sign in heart at 5 mg/kg, ip administered for 21 days consecutively by H and E staining based analysis; assay type: organism-based; conditions: in vivo, 504 h, time 21 day
[36] = Toxicity in nude BALB/c mouse xenografted with human HL-60 cells assessed as body weight change at 5 mg/kg, ip administered for 21 days consecutively; assay type: organism-based; conditions: in vivo, 504 h, time 21 day
[37] = test system: HL-60; assay: Antitumor activity against human HL-60 cells xenografted in nude BALB/c mouse assessed as tumor growth inhibition at 5 mg/kg, ip administered for 21 days consecutively relative to control; assay type: functional; conditions: HL-60, 504 h, time 21 day, read-out: TGI
[38] = test system: HL-60; assay: Antiproliferative activity against human HL-60 cells incubated for 48 hrs by CCK8 assay; assay type: functional, cell-based; conditions: HL-60, 48 h

Sequence of Phosphatidylinositol 4,5-bisphosphate 3-kinase catalytic subunit alpha isoform (P42336 whole entry, canonical isoform): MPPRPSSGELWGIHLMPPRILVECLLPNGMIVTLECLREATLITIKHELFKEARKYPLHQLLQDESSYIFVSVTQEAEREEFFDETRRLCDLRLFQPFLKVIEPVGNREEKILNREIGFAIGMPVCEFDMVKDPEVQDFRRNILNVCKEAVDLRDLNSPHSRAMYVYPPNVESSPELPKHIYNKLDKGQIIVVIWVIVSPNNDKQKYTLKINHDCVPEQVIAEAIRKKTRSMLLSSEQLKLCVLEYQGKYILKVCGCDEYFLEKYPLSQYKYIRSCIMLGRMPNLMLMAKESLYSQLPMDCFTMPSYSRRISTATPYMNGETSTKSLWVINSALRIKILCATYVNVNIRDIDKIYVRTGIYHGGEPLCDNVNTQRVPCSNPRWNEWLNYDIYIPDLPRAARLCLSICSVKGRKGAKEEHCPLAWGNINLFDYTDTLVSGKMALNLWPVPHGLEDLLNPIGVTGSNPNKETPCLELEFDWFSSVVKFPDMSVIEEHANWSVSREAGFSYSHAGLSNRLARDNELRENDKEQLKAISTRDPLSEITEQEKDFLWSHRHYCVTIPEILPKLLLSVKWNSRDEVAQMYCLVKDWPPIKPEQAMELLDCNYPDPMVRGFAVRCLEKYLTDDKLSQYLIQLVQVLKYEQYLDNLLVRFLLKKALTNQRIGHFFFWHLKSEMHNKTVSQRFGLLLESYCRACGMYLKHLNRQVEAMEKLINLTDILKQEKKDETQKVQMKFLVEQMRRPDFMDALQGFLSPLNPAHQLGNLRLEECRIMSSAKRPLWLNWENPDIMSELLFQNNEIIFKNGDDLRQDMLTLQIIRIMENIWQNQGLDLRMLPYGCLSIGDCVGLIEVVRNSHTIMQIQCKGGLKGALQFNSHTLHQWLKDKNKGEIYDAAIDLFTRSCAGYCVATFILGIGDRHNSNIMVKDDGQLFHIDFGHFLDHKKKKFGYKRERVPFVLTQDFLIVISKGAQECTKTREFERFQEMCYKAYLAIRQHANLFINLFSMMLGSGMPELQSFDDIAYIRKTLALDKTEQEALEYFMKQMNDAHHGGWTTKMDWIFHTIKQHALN
Sequence of Phosphatidylinositol 4,5-bisphosphate 3-kinase catalytic subunit gamma isoform (P48736 whole entry, canonical isoform): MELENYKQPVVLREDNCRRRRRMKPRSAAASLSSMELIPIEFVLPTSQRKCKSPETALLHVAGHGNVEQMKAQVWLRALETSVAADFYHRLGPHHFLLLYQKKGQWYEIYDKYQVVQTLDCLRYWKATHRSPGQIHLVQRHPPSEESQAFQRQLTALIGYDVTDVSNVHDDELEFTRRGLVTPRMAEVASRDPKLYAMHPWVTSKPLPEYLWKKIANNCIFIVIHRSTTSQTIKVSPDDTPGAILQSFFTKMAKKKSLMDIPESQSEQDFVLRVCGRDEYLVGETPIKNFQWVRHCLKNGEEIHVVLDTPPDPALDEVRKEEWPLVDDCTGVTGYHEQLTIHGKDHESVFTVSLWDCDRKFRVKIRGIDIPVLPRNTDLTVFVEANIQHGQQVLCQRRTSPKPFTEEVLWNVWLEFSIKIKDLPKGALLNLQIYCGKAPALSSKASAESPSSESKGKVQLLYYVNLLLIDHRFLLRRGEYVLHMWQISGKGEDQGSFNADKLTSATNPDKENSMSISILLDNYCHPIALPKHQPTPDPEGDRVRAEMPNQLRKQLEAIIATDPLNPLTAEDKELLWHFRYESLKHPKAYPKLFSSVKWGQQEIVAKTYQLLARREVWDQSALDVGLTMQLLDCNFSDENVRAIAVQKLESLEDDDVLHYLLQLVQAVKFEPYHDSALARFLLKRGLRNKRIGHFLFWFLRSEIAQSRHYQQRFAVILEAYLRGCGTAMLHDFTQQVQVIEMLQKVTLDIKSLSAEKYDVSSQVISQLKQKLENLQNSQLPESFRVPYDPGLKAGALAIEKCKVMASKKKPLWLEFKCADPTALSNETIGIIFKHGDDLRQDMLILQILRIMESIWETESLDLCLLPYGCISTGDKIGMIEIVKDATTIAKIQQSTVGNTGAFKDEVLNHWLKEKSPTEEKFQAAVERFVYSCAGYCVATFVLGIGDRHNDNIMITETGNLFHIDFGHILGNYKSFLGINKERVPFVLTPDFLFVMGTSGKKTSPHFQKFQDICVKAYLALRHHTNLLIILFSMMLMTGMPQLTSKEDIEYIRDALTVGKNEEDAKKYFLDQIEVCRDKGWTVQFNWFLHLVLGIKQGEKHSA
Sequence of Phosphatidylinositol 4,5-bisphosphate 3-kinase catalytic subunit beta isoform (P42338 whole entry, canonical isoform): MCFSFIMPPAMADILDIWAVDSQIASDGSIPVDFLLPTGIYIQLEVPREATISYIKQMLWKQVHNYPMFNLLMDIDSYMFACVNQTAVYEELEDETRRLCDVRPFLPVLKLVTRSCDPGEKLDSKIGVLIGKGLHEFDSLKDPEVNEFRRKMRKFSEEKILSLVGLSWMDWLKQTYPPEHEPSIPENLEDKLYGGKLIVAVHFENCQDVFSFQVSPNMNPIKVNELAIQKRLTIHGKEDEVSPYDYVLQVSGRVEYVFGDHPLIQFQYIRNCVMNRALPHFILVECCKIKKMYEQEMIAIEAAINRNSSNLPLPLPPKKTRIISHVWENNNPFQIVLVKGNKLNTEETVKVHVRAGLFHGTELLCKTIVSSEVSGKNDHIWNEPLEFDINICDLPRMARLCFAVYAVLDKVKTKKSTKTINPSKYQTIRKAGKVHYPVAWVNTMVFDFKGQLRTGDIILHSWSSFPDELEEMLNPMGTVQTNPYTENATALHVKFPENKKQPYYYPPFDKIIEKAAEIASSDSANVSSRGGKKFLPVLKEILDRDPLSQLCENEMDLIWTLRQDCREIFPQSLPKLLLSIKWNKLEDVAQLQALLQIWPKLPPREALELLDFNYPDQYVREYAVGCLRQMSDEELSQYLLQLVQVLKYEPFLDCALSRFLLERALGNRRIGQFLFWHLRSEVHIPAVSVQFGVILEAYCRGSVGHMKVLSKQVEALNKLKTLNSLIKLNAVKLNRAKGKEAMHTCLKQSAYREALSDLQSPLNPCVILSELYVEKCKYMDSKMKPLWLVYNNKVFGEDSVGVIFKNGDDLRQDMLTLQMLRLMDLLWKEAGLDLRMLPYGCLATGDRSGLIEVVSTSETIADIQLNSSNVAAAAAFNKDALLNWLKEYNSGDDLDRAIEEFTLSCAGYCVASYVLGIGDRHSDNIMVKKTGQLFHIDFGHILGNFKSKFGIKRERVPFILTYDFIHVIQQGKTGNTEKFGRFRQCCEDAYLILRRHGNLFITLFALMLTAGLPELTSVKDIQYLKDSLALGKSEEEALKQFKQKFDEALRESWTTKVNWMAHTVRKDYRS

SMILES: O=S(=O)(Nc1cc(-c2cnc3[nH]nc(-c4ccncc4)c3c2)cnc1Cl)c1ccccc1
IC50 [2]: 7.37 nM | IC50 [3]: 0.67 nM | IC50 [4]: 4.37 nM | IC50 [1]: 4.26 nM | IC50 [5]: 1.17 nM

SMILES: O=S(=O)(Nc1cc(-c2cnc3[nH]nc(-c4ccccc4)c3c2)cnc1Cl)c1ccccc1
IC50 [3]: 1.24 nM | IC50 [1]: 2.65 nM

SMILES: Cn1c(=O)n(-c2ccc(C(C)(C)C#N)cc2)c2c3cc(-c4cnc5ccccc5c4)ccc3ncc21 [DACTOLISIB]
IC50 [27]: 1050 nM | Activity [28]: Non-Toxic | IC50 [29]: 30 nM | IC50 [30]: 1310 nM | Activity [31]: Non-Toxic | Activity [32]: Non-Toxic | IC50 [33]: 500 nM | Activity [34]: Non-Toxic | Activity [35]: Non-Toxic | Activity [36]: Non-Toxic | inhibition in vivo at 5 mg/kg [37]: 62% | IC50 [38]: 510 nM

The next lines start with results.

IC50 [1]: 32.2 nM
SMILES: O=S(=O)(Nc1cc(-c2cnc3[nH]ncc3c2)cnc1Cl)c1ccccc1

clearance [6]: 37 mL/min/kg | MRT inf [8]: 35.6 min | IC50 [2]: 0.65 nM | half-life [11]: 137 min | AUC(0-inf) [14]: 121 ng·h/mL | AUC(0-t) at 24 h [15]: 104 ng·h/mL | Vd [16]: 7.26 L/kg | IC50 [4]: 1.57 nM | AUC(0-inf) [17]: 903 ng·h/mL | Tmax [18]: 2.8 h | AUC(0-t) at 24 h [19]: 898 ng·h/mL | IC50 [5]: 0.65 nM | half-life [24]: 269 min | Cmax [25]: 15.5 ng/mL | bioavailability [26]: 2.68%
SMILES: O=S(=O)(Nc1cc(-c2cnc3[nH]nc(-c4ccncc4)c3c2)cnc1Cl)c1ccc(F)cc1
Activity [7]: Non-Toxic | viability at 0.25 µM [9]: 96.4% | viability at 0.5 µM [10]: 90.4% | Activity [12]: Non-Toxic | Activity [13]: Non-Toxic | Activity [20]: Non-Toxic | viability at 1 µM [21]: 53.5% | Activity [22]: Non-Toxic | Activity [23]: Non-Toxic
